# Values of other authors, collected in patent US20070135423A1, “E-fluoro-4-(pyridin-2-yl)-piperidine-1-carboxamide derivatives and related compounds which modulate the function of the vanilloid-1 receptor (vr1) for the treatment of pain” (priority 2003, published 2007).
# Molecular target: VR1 (Rattus norvegicus, UniProt O35433)
# Settings: Wahl et al., Mol. Pharmacol, 59:9, 2001
# Sequence of VR1 (O35433 whole entry): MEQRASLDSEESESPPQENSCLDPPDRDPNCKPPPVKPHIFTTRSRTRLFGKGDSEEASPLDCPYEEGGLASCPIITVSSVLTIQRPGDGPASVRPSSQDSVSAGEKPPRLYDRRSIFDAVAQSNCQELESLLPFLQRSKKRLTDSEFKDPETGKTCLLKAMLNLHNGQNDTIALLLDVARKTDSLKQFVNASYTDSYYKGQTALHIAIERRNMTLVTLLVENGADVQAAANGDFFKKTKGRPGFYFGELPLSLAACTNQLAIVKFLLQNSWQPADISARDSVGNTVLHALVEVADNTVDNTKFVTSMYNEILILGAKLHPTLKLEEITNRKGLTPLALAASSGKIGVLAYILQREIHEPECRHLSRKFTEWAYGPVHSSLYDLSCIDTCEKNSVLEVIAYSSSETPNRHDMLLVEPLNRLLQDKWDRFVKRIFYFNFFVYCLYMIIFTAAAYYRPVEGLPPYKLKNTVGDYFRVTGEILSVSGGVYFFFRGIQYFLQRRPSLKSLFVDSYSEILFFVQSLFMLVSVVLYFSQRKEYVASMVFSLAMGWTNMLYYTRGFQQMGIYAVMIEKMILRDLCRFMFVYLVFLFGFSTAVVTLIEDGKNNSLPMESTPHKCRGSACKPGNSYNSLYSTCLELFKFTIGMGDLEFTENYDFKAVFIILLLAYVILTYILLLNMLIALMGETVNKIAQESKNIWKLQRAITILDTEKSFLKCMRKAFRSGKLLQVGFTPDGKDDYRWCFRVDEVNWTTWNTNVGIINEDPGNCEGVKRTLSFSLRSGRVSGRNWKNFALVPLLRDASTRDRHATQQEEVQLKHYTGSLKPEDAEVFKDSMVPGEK
smiles,measurement,value
C=C(C)[C@]12C[C@@H](C)[C@@]34O[C@](Cc5ccccc5)(O[C@@H]1[C@@H]3C=C(COC(=O)Cc1cc(I)c(O)c(OC)c1)C[C@]1(O)C(=O)C(C)=C[C@@H]41)O2 [Iodo-resiniferatoxin],VR1 antagonist potency (in words),nanomolar antagonist
